This is an account of results in PubChem BioAssay AID687005 (Broad Institute, 2013).

Inconclusive results are not listed. The source made the active and inactive calls.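 Rule for the calls: active = Compounds that reduce signal, with fitted half-maximal dose at or under twice the top valid tested dose; inconclusive = Poor fit, or flat curve losing 30 to 70% of signal; inactive = Potency past limit, flat within 30%, or opposite direction.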

The first assay can be described thus: viability loss in HEK293T cells – cell-based, ATP luminescence, cherry-pick samples, cytotoxicity control, dose response (AID 687005). The following applies: HEK293T viability, ATP luminescence (CellTiter-Glo), 48 h; at 21 µM (top of the series). On the technique in general: Cellular ATP, detected with luciferase, serves as a proxy for viable cell number.
Take `Cc1ccc(S(=O)(=O)N[C@@H]2CCCN(Cc3cccc(OCCO)c3)C2)cc1`: the activity change, negative = cytotoxicity is 0.167% (inactive).

Still in this assay, the particulars now being: HEK293T viability, ATP luminescence (CellTiter-Glo), 48 h; at 23.5 µM (top of the series).
For the compound `C[C@H](CO)N1C[C@H](C)[C@@H](CN(C)S(=O)(=O)c2ccc(Cl)cc2)Oc2c(NS(=O)(=O)c3ccc(F)cc3)cccc2C1=O`, the activity change, negative = cytotoxicity was -1.86% (inactive).
As for `O=C(NC[C@@H]1[C@@H](c2ccccc2)[C@H](CO)N1C(=O)C1CCC1)NC1CCCC1`, the activity change, negative = cytotoxicity was -9.04% (inactive).
The same measure, in the same setting: next, `CO[C@H]1CN(C)C(=O)c2cc(NC(=O)C3CCOCC3)ccc2OC[C@@H](C)NC[C@H]1C`: 41% (inactive); `CC(C)NC(=O)Nc1ccc2c(c1)CC(=O)N([C@@H](C)CO)C[C@H](C)[C@H](CN(C)Cc1ccc3c(c1)OCO3)O2`: 26.2% (inactive); `O=C(C[C@H]1CC[C@@H]2[C@H](COC[C@@H](O)CN2Cc2cccc(C(F)(F)F)c2)O1)NCc1ccc(Cl)cc1`: 16.8% (inactive).
Still for that read-out and setting: next, `C[C@@H]1CN([C@@H](C)CO)C(=O)c2cc(NC(=O)Nc3ccc(F)cc3)ccc2O[C@@H](C)CCCCO[C@H]1CN(C)S(=O)(=O)c1ccccc1`: 3.48% (inactive); `C[C@@H]1CN([C@@H](C)CO)C(=O)CCCn2cc(nn2)CO[C@@H]1CN(C)Cc1ccc2c(c1)OCO2`: -1.87% (inactive); `N#Cc1ccc(-c2ccc3c(c2)[C@@H]2[C@@H](CCN2C(=O)Cc2ccccc2)[C@@H](CO)N3)cc1`: -19.6% (inactive).
Same read-out and setting: the figure for `C[C@@H]1CN([C@@H](C)CO)C(=O)c2cc(NC(=O)Nc3ccc4c(c3)OCO4)ccc2O[C@H]1CN(C)Cc1ccc(Oc2ccccc2)cc1` is -38.4% (inactive).

The assay is the same for the next values; noted with them: HEK293T viability, ATP luminescence (CellTiter-Glo), 48 h; at 26 µM (top of the series).
As for `CCOC(=O)NC(=S)Nc1ccc(C(C)(C)C)cc1`, the activity change, negative = cytotoxicity was -11.3% (inactive).
On the same count and under the same terms, next, `C[C@@H]1CCCCO[C@H](CN(C)C(=O)c2ccccc2)[C@@H](C)CN([C@@H](C)CO)C(=O)c2cc(NC(=O)c3ccccc3)ccc2O1`: 5.72% (inactive); `CN(C)C(=O)c1ccc(-c2ccc([C@H]3[C@H](CO)N4CCCCN(CCC(F)(F)F)C[C@@H]34)cc2)cc1`: -23.6% (inactive).
Still for that read-out and setting: next, `COc1ccc(NC(=O)N(C)C[C@H]2OCCCC[C@@H](C)Oc3ccc(NC(=O)c4ccccc4)cc3C(=O)N([C@@H](C)CO)C[C@H]2C)cc1`: 7.8% (inactive); `CC(=O)N1[C@H](CO)[C@H](c2ccc(-c3ccccc3)cc2)[C@H]1CNC(=O)C1CC1`: -33.3% (inactive); `Cc1noc(C)c1S(=O)(=O)Nc1ccc2c(c1)C(=O)N([C@H](C)CO)C[C@H](C)[C@H](CN(C)Cc1ccncc1)O2`: 37.8% (inactive).
Still for that read-out and setting: the figure for `S=C(NCc1ccccc1)NCC1COc2ccccc2O1` (stereo not given) is -15.9% (inactive); for `C[C@@H]1CCCCO[C@H](CN(C)Cc2ccc3c(c2)OCO3)[C@H](C)CN([C@H](C)CO)C(=O)c2cc(NC(=O)Nc3cccc4ccccc34)ccc2O1` it is 171% (inactive).
As to `CNC(=O)C[C@@H]1CC[C@@H]2[C@H](COC[C@H](O)CN2S(=O)(=O)c2cccc(Cl)c2)O1`, the activity change, negative = cytotoxicity was 3.1% (inactive).
On the same count and under the same terms, the figure for `CO[C@H]1CN(C)C(=O)c2ccc(NC(=O)C3CC3)cc2OC[C@@H](C)N(Cc2ccc(F)cc2)C[C@@H]1C` is 37.9% (inactive); for `CC(=O)c1sc(NC(=O)c2cc(-c3ccccc3)nn2-c2ccccc2)nc1C` it is 38.5% (inactive).
In the case of `COC(=O)C1=C(C)N(Cc2ccc(F)cc2)C(=S)NC1c1cccc(Cl)c1` (stereo not given), the activity change, negative = cytotoxicity was -1.12% (inactive).
`Cc1noc(C)c1NC(=O)N(C)C[C@H]1Oc2ccc(NC(=O)C3CC3)cc2CC(=O)N([C@@H](C)CO)C[C@H]1C`: the activity change, negative = cytotoxicity is 0.766% (inactive).
The same measure, in the same setting: next, `C[C@H]1CN([C@@H](C)CO)C(=O)CCCn2cc(nn2)CO[C@@H]1CN(C)Cc1ccc(C(F)(F)F)cc1`: -2.59% (inactive); `COCC#Cc1cnc2c(c1)C(=O)N([C@H](C)CO)C[C@H](C)[C@H](CN(C)C(=O)C1CC1)O2`: -5.58% (inactive).
In the case of `C[C@@H]1CN([C@@H](C)CO)C(=O)c2cc(NC(=O)Nc3ccccc3)ccc2O[C@@H]1CN(C)C(=O)Nc1cccc2ccccc12`, the activity change, negative = cytotoxicity was 203% (inactive).
Take `COCC(=O)Nc1ccc2c(c1)C(=O)N(C)C[C@H](OC)[C@@H](C)CN(C(=O)c1ccccc1)[C@@H](C)CO2`: the activity change, negative = cytotoxicity was 13.6% (inactive).
On the same count and under the same terms, next, `CNC[C@H]1OCCCC[C@H](C)Oc2ccc(NC(=O)Cc3ccccc3)cc2C(=O)N([C@H](C)CO)C[C@@H]1C`: -17.1% (inactive).
On the same count and under the same terms, the figure for `CC(C)CC#Cc1cnc2c(c1)C(=O)N([C@@H](C)CO)C[C@@H](C)[C@@H](CN(C)C(=O)c1cccc(F)c1)O2` is -19.3% (inactive); for `CO[C@@H]1CN(C)C(=O)c2ccc(NC(=O)NC(C)C)cc2OC[C@H](C)NC[C@@H]1C` it is -4.93% (inactive).
For the compound `Cc1ccc(S(=O)(=O)N(C)C[C@@H]2Oc3ncc(Br)cc3C(=O)N([C@@H](C)CO)C[C@H]2C)cc1`, the activity change, negative = cytotoxicity was -14.6% (inactive).
Still for that read-out and setting: the figure for `CCCNC(=O)C[C@@H]1CC[C@H]2[C@@H](COC[C@H](O)CN2Cc2ccccc2F)O1` is 22.6% (inactive).
Still for that read-out and setting: next, `O=C(NC1CCCC1)N1CCCCN2[C@H](CO)[C@H](c3ccc(-c4cncnc4)cc3)[C@@H]2C1`: -34.7% (inactive); `CC1(C(=O)Nc2ccc3ccccc3c2)CCC(=O)N1C1CC1` (stereo not given): -28.4% (inactive); `C[C@H](NC(=O)C[C@@H]1C=C[C@H](NC(=O)CN2CCOCC2)[C@@H](CO)O1)c1ccccc1`: 18.6% (inactive).
Same read-out and setting: the figure for `C[C@@H]1CN([C@@H](C)CO)C(=O)CCCn2nncc2CO[C@@H]1CN(C)Cc1cccc(C(F)(F)F)c1` is -9.87% (inactive).
In the case of `CNC[C@H]1Oc2ncc(C#CCC(C)C)cc2C(=O)N([C@H](C)CO)C[C@H]1C`, the activity change, negative = cytotoxicity is 29% (inactive).
Same read-out and setting: next, `COCCNC(=O)C[C@@H]1CC[C@@H]2[C@H](COC[C@@H](O)CN2S(=O)(=O)c2ccccc2C)O1`: 31.5% (inactive); `C[C@H](NC(=O)C[C@@H]1CC[C@@H]2[C@H](COC[C@@H](O)CN2C(=O)Nc2cccc(F)c2)O1)c1ccccc1`: -12.7% (inactive); `CN1C(=O)c2cc(NS(C)(=O)=O)ccc2OC[C@@H]2O[C@@H](CC(=O)O)CC[C@H]21`: 4.2% (inactive).
`O=C(C[C@H]1CC[C@H]2[C@@H](COC[C@H](O)CN2C(=O)Nc2ccc3c(c2)OCO3)O1)N1CCN(c2ccccc2)CC1`: the activity change, negative = cytotoxicity was 5.63% (inactive).
Still for that read-out and setting: the figure for `CC(C)COc1ccc(CNC(=S)NCc2ccccc2)cc1` is -1.46% (inactive); for `CNC[C@H]1Oc2c(NS(=O)(=O)c3cccs3)cccc2C(=O)N([C@H](C)CO)C[C@@H]1C` it is -26.9% (inactive); for `N#C[C@@H]1[C@@H](c2ccccc2)[C@@H](CO)N1C(=O)Cc1ccccc1` it is -0.39% (inactive).
As for `C[C@H]1CN([C@@H](C)CO)S(=O)(=O)c2ccc(C#Cc3cccc(F)c3)cc2O[C@@H]1CN(C)C`, the activity change, negative = cytotoxicity is -49.7% (inactive).
Same read-out and setting: next, `Cc1ccc(C(=O)NC(=S)Nc2ccccc2N2CCCC2)cc1[N+](=O)[O-]`: -8.33% (inactive); `C[C@@H]1CN([C@@H](C)CO)C(=O)c2cc(NC(=O)C3CC3)ccc2O[C@H]1CN(C)CC1CCCCC1`: -17.8% (inactive); `C[C@H](O)C#Cc1ccc([C@H]2[C@H](CO)N3CCCCN(CC4CCOCC4)C[C@@H]23)cc1`: 21.6% (inactive).
On the same count and under the same terms, the figure for `COc1cc(CO)cc(I)c1O[C@H]1C=C(C(=O)NCCO)C[C@@H](N(CC2CCCCC2)C(=O)c2cc3ccccc3oc2=O)[C@@H]1O` is 29.4% (inactive).
Still for that read-out and setting: next, `Cc1ccccc1NC(=O)C(NC1CCCCC1)C(C)C` (stereo not given): -12.2% (inactive).
Take `Cc1cccc(OCC(=O)NCc2ccccc2)c1`: the activity change, negative = cytotoxicity is -36.8% (inactive).
Same read-out and setting: next, `CCC(C)(C(=O)Nc1ccccc1C)N(C(=O)CNC(C)=O)c1ccc(C)cc1` (stereo not given): -11.7% (inactive); `Cc1ccc(NC(=O)[C@H](C)NC(=O)C2CCN(C(=O)[C@@H](N)C(C)C)CC2)cc1`: -1.97% (inactive).
The same measure, in the same setting: the figure for `COc1ccccc1CNC(=O)C[C@@H]1C[C@@H]2c3cc(NC(=O)Nc4ccccc4F)ccc3O[C@@H]2[C@H](CO)O1` is 15.8% (inactive); for `CCCNC(=O)N(C)C[C@@H]1Oc2ncc(C#CC3CCCCC3)cc2C(=O)N([C@H](C)CO)C[C@@H]1C` it is -14% (inactive); for `CC(C)CC#Cc1ccc2c(c1)O[C@@H](CN(C)C(=O)C1CCC1)[C@@H](C)CN([C@H](C)CO)S2(=O)=O` it is 1.96% (inactive).
Same read-out and setting: the figure for `CC(=O)NNC(=O)CSc1nnc(-c2ccccc2)c(-c2ccccc2)n1` is -4.35% (inactive); for `O=C(NC(=S)Nc1ccccc1N1CCOCC1)c1ccccc1F` it is -0.484% (inactive).

Staying with this assay, now noted: HEK293T viability, ATP luminescence (CellTiter-Glo), 48 h; at 30 µM (top of the series).
For the compound `NC(=O)CN(c1ccccc1)S(=O)(=O)c1ccc(F)cc1`, the activity change, negative = cytotoxicity is -2.68% (inactive).

The same assay, now with this note: HEK293T viability, ATP luminescence (CellTiter-Glo), 48 h; at 38 µM (top of the series).
On to `Cc1ccc(NC(=O)C2(C)CCN2C(=O)CC2CCCC2)cc1` (stereo not given), for which the activity change, negative = cytotoxicity was -16.5% (inactive).
